# Laboratory results from patent US7968548B2, “Melanocortin receptor-specific piperazine compounds with diamine groups” (Palatin Technologies, Inc., priority 2005, dated 2011).
# Tests used:
# MC4-R [1] = biological target: T1, MC4-R (Homo sapiens, UniProt P32245); experiment: Competitive inhibition binding assay using [I125]-NDP-α-MSH, HEK-293 membranes, recombinant hMC4-R; parameters: expressed in transfected cells; host or cells: HEK-293
# Experimental: (§1) A competitive inhibition binding assay was performed using membrane homogenates prepared from HEK-293 cells that express recombinant hMC4-R, hMC3-R, or hMC5-R, and from B-16 mouse melanoma cells (containing endogenous MC1-R). In some instances, HEK-293 cells that express recombinant hMC1-R were employed. In the examples that follow, all MC3-R, MC4-R and MC5-R values are for human recombinant receptors. MC1-R values are for B-16 mouse melanoma cells, unless the heading is “hMC1-R”, in which case the value is for human recombinant MC1-R. Assays were performed in 96 well GF/B Millipore multiscreen filtration plates (MAFB NOB10) pre-coated with 0.5% bovine serum albumin (Fraction V). […] After incubation for 60 minutes at 37° C., the assay mixture was filtered and the membranes washed three times with ice-cold buffer. Filters were dried and counted in a gamma counter for bound radioactivity. […] Maximal specific binding (100%) was defined as the difference in radioactivity (cpm) bound to cell membranes in the absence and presence of 1 μM NDP-α-MSH. […] Each assay was conducted in triplicate and the actual mean values are described, with results less than 0% reported as 0%. Ki values for test compounds were determined using Graph-Pad Prism® curve-fitting software.
# MC5-R = biological target: T2, MC5-R (Homo sapiens, UniProt P33032); experiment: Competitive inhibition binding assay using [I125]-NDP-α-MSH, HEK-293 membranes, recombinant hMC5-R
# T2 construct: expressed in transfected cells; host or cells: HEK-293
# T2 sequence (P33032 whole entry): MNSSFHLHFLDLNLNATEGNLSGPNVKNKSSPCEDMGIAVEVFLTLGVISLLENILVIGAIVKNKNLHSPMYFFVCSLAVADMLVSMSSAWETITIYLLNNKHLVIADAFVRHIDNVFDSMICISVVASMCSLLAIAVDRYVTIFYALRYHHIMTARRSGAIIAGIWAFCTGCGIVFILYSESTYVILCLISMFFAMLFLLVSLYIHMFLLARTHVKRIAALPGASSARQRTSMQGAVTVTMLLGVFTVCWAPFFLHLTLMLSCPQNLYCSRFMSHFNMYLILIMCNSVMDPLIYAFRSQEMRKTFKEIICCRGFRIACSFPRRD
# Experimental: as §1
# [2] = Mouse model IN feeding studies (body weight); type: in vivo; conditions: 20 hours
# Experimental: (§2) Food intake and body weight after IN and IP dosing. Changes in food intake and body weight were evaluated for selected compounds. Male C57BL/6 mice were obtained from Jackson labs (Bar Harbor, Me.). Animals were individually housed in conventional plexiglass hanging cages and maintained on a controlled 12 hour on/off light cycle. Water and pelleted (Harlan Teklad 2018 18% Protein Rodent Diet) food was provided ad libitum. The mice were dosed IP (by intraperitoneal injection) after a 24 hour fast or IN (by intranasal administration) with vehicle or selected compounds (0.1-3 mg/kg, and in some cases up to 10 mg/kg). All animals were dosed once a day (or up to four consecutive days) at the start of the “lights off” period. The changes in food intake for the 4 hour and 20 hour period after dosing relative to control animals administered vehicle were determined. Body weights were determine 4 hours prior to dosing and 20 hours after dosing, and the change in body weight relative to control animals administered vehicle were determined.
# hMC1-R = biological target: T3, hMC1-R (Homo sapiens, UniProt Q01726); experiment: Competitive inhibition binding assay using [I125]-NDP-α-MSH, HEK-293 membranes, recombinant hMC1-R; conditions: human recombinant MC1-R
# T3 construct: expressed in transfected cells; host or cells: HEK-293
# T3 sequence (Q01726 whole entry): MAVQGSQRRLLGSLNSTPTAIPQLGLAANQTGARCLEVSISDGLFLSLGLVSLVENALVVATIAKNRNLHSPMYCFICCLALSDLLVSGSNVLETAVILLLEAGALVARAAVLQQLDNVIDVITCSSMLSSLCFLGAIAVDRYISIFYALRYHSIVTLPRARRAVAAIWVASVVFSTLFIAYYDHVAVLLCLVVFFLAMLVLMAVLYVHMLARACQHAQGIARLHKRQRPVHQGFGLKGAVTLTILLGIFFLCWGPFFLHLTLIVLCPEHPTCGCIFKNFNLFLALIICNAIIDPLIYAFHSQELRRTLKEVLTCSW
# Experimental: as §1
# MC3-R = biological target: T4, MC3-R (Homo sapiens, UniProt P41968); experiment: Competitive inhibition binding assay using [I125]-NDP-α-MSH, HEK-293 membranes, recombinant hMC3-R
# T4 construct: expressed in transfected cells; host or cells: HEK-293
# T4 sequence (P41968 whole entry): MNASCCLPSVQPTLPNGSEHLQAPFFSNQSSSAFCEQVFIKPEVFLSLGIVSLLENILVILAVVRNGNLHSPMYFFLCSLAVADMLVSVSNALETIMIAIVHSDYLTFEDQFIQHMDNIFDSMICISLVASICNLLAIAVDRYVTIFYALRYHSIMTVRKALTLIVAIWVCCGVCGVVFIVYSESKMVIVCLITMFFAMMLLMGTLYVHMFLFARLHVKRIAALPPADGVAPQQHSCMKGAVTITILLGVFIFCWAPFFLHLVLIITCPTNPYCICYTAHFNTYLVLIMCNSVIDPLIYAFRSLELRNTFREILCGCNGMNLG
# Experimental: as §1
# [3] = Mouse model IP feeding studies in fasted animals (food intake); type: in vivo; conditions: 3 mg/kg, 20 hours
# Experimental: as §2
# MC4-R [4] = biological target: T1, MC4-R; experiment: Assay for agonist activity: cAMP accumulation in HEK-293 cells that express MC4-R; type: cell-based; parameters: expressed in transfected cells; host or cells: HEK-293; conditions: HEK293; cell line that expresses MC4-R; relative to NDP-α-MSH; read-out: maximum effect observed, % of the maximum achieved with NDP-α-MSH (cAMP)
# Experimental: Assay for agonist activity. Accumulation of intracellular cAMP was examined as a measure of the ability of the test compounds to elicit a functional response in HEK-293 cells that express MC4-R. Confluent HEK-293 cells that express recombinant hMC4-R were detached from culture plates by incubation in enzyme-free cell dissociation buffer. Dispersed cells were suspended in Earle's Balanced Salt Solution containing 10 mM HEPES (pH 7.5), 1 mM MgCl2, 1 mM glutamine, 0.5% albumin and 0.3 mM 3-isobutyl-1-methyl-xanthine (IBMX), a phosphodiesterase inhibitor. The cells were plated in 96-well plates at a density of 0.5×10^5 cells per well and pre-incubated for 30 minutes. Cells were exposed for 1 hour at 37° C. to test compounds dissolved in DMSO (final DMSO concentration of 1%) at a concentration range of 0.05-5000 nM in a total assay volume of 200 μL. NDP-α-MSH was used as the reference agonist. At the end of the incubation period, cells were disrupted by the addition of 50 μL of lysis buffer (cAMP EIA kit, Amersham) followed by vigorous pipetting. Levels of cAMP in the lysates were determined using a cAMP EIA kit (Amersham). Data analysis was performed by nonlinear regression analysis with Graph-Pad Prism® software. The maximum efficacies of the test compounds were compared to that achieved by the reference melanocortin agonist NDP-αMSH.
# MC1-R = biological target: T5, MC1-R (Mus musculus, UniProt Q01727); experiment: Competitive inhibition binding assay using [I125]-NDP-α-MSH, B-16 mouse melanoma cell membranes; conditions: B-16 mouse melanoma cells
# T5 construct: from B-16 mouse melanoma cells (containing endogenous MC1-R); endogenous in cells; host or cells: B-16 mouse melanoma cells (membrane homogenates)
# T5 sequence (Q01727 whole entry): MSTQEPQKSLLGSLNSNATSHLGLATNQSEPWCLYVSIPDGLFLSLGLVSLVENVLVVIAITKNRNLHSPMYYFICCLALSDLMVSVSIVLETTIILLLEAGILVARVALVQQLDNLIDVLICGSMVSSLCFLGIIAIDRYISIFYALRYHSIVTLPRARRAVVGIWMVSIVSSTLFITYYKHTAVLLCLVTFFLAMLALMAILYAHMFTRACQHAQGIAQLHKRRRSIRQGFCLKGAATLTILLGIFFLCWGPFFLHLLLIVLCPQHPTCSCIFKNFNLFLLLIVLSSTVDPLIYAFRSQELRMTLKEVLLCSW
# Experimental: as §1
# MC4-R [5] = biological target: T1, MC4-R; experiment: Competitive binding assay using [I125]-AgRP (83-132); parameters: expressed in transfected cells; conditions: hMC4-R membranes
# Experimental: Competitive binding assay using [I^125]—AgRP (83-132). Competitive binding studies using [I^125]—AgRP (83-132) were carried out using membrane homogenates isolated from cells that express hMC4-R. The assays were performed in 96-well GF/B Millipore multiscreen filtration plates (MAFB NOB10) pre-coated with 0.5% bovine serum albumin (Fraction V). The assay mixture contained 25 mM HEPES buffer (pH 7.5) with 100 mM NaCl, 2 mM CaCl2, 2 mM MgCl2, 0.3 mM 1,10-phenanthroline, 0.5% bovine serum albumin, membrane homogenates, radioligand [I^125]—AgRP (83-132) (Perkin Elmer) and increasing concentrations of compounds in a total volume of 200 μL. Binding was measured at radioligand concentrations of 0.2 nM. After incubating for 1 hour at 37° C., the reaction mixture was filtered and washed with assay buffer containing 500 mM NaCl. The dried discs were punched out from the plate and counted on a gamma counter. […] Ki values for test compounds were determined using Graph-Pad Prism® curve-fitting software.
# T1 sequence (P32245 whole entry): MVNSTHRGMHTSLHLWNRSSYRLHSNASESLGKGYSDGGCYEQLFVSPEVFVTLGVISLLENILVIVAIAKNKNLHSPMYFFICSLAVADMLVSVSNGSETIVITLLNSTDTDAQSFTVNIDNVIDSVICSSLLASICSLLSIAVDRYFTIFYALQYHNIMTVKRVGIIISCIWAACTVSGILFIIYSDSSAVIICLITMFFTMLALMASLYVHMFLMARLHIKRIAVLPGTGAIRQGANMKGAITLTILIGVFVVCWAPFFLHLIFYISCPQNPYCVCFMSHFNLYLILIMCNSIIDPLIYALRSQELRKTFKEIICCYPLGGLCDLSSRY
Ki (MC4-R [1]),Ki (MC5-R),Ki (MC3-R),Emax (MC4-R [4]),inhibition at 1 µM (MC4-R [1]; 1 μM compound),inhibition at 1 µM (MC5-R; 1 μM compound),inhibition at 1 µM (MC1-R; 1 μM compound),Ki (MC1-R),inhibition at 1 µM (MC3-R; 1 μM compound),Ki (MC4-R [5]),Structure (SMILES),average decrease in body weight compared to control animals ([2]; 0.1 mg/kg),average decrease in body weight compared to control animals ([2]; 0.3 mg/kg),average decrease in body weight compared to control animals ([2]; 1 mg/kg),Ki (hMC1-R),average decrease in food intake compared to control animals [3]
18 nM,301 nM,250 nM,61%,98%,68%,55%,102 nM,71%,–,"CC(C)C[C@@H]1CN(C(=O)[C@H](N)Cc2ccc(Cl)cc2Cl)[C@@H](CCCCNCCN)CN1C(=O)Cc1ccc2ccccc2c1 [Example 1, (R)-2-Amino-1-[(2S,5R)-2-[4-(2-amino-ethylamino)-butyl]-5-isobutyl-4-(2-naphthalen-2-yl-acetyl)-piperazin-1-yl]-3-(2,4-dichloro-phenyl)-propan-1-one]",–,–,–,–,–
23 nM,143 nM,190 nM,16%,–,–,–,558 nM,–,72 nM,"CC(C)C[C@@H]1CN(C[C@H](N)Cc2ccc(Cl)cc2Cl)[C@@H](CCCCNCCN)CN1C(=O)Cc1ccc2ccccc2c1 [Example 2, 1-{(2R,5S)-4-[(R)-2-Amino-3-(2,4-dichloro-phenyl)-propyl]-5-[4-(2-amino-ethylamino)-butyl]-2-isobutyl-piperazin-1-yl}-2-naphthalen-2-yl-ethanone]",2.5%,3%,4.7%,–,28%

Structure (SMILES),Ki (MC4-R [1]),Ki (MC5-R),Ki (MC3-R),Emax (MC4-R [4]),inhibition at 1 µM (MC4-R [1]; 1 μM compound),inhibition at 1 µM (MC5-R; 1 μM compound),inhibition at 1 µM (MC1-R; 1 μM compound),Ki (MC1-R),inhibition at 1 µM (MC3-R; 1 μM compound),Ki (MC4-R [5]),average decrease in body weight compared to control animals ([2]; 0.1 mg/kg),average decrease in body weight compared to control animals ([2]; 0.3 mg/kg),average decrease in body weight compared to control animals ([2]; 1 mg/kg),Ki (hMC1-R),average decrease in food intake compared to control animals [3]
"CC(C)C[C@@H]1CN(C[C@H](N)Cc2ccc(Cl)cc2Cl)[C@@H](CCCNCCN)CN1C(=O)Cc1ccc2ccccc2c1 [Example 18, 1-{(2R,5S)-4-[(R)-2-Amino-3-(2,4-dichloro-phenyl)-propyl]-5-[3-(2-amino-ethylamino)-propyl]-2-isobutyl-piperazin-1-yl}-2-naphthalen-2-yl-ethanone]",106 nM,188 nM,297 nM,–,–,–,–,–,–,–,3%,3.5%,6.2%,359 nM,30%
